Results from PMC6152416, “Pharmacological and Toxicological Screening of Novel Benzimidazole-Morpholine Derivatives as Dual-Acting Inhibitors” (Molecules : A Journal of Synthetic Chemistry and Natural …, 2017).
≈ marks a conversion by molar mass, not a printed value. Where two headings read alike, the source gives them in different places.

Tests used:
[1] = system: Pseudomona aeuroginosa ATCC 27853; experiment: Antimicrobial broth microdilution (CLSI M07-A9); assay type: cell-based; settings: Pseudomona aeuroginosa [sic] ATCC 27853
Experimental: Microbiological studies were performed according to CLSI reference M07-A9 broth microdilution method for bacterial strains and EUCAST definitive method EDef 7.1 for Candida species. Synthesized compounds were tested for their in vitro growth inhibitory activity against Escherichia coli ATCC 35218, Escherichia coli ATCC 25922, Staphylococcus aureus, ATCC 25923, Pseudomona aeuroginosa ATCC 27853, Enterococcus faecalis ATCC29212, Klebsiella pneumoniae ATCC700603 Listeria monocytogenes ATCC7644, Candida albicans ATCC90028, Candida glabrata ATCC 90030, Candida krusei ATCC 6258, Candida parapsilosis ATCC 22019.
The cultures were obtained from Mueller-Hinton broth (Difco) for the bacterial strains and the yeasts were maintained in Roswell Park Memorial Institute (RPMI) medium, after an overnight incubation at 37 °C for both. The inocula of the test microorganisms were adjusted to match an equivalent turbidity of a 0.5 McFarland standard, which was determined using a spectrophotometer; the final inoculum size was determined to be 0.5–2.5 × 10^5 cfu/mL for antibacterial and antifungal assays. The tests were carried out for both mediums at pH = 7 and two-fold serial dilutions were applied. The last well on the microplates, which was containing only the inoculated broth, was kept as control, and the last well with no growth of microorganism was recorded to represent the minimum inhibitory concentration (MIC50) in μg/mL. For both of the antibacterial and antifungal assays, the test compounds and reference drugs were firstly dissolved in DMSO, and further dilutions were performed to the desired concentrations of 1000, 500, 250, 125, 62.5, 31.25, 15.6, 7.8, 3.9 and 1.95 μg/mL using Mueller–Hinton broth and RPMI medium. The completed plates were incubated for 24 h, and at the end of the incubation, resazurin (20 µg/mL) was added into each well to control the growth in the wells. Final plates including microorganism strains were incubated for 2 h. MIC50 values were determined using microplate reader at […] wavelengths; MIC50 readings were performed twice for entire compounds. Chloramphenicol and ketoconazole were used as reference drugs.

COX-1 = target: T1, COX-1 (Ovis aries, UniProt P05979); experiment: Fluorimetric COX-1 inhibition screening kit (BioVision); assay type: biochemical
T1 construct: purchased BioVision (Milpitas, CA, USA) K548-100
Experimental: (§1) Inhibitory potency of the compounds on COX-1 and COX-2 enzymes was determined by using fluorimetric COX-1 and COX-2 inhibition screening kits from BioVision (Milpitas, CA, USA). The experimental protocol as described in the guides provided by the supplier was followed. All of the pipetting were performed using a robotized system to increase speed, accuracy and precision. Fluorescence intensities of the samples were kinetically measured at 25 °C for 5–10 min by monitoring emissions at 587 nm after excitation at 535 nm. Two appropriate points (T1 and T2) in the linear range of the plot were chosen and the corresponding fluorescence values (RFU1 and RFU2) were obtained. The slope for all samples including Enzyme Control (EC) was calculated by dividing the net ΔRFU (RFU2 − RFU1) values by the time ΔT (T2 − T1). Percentage of relative inhibition was calculated by using the following equation:% Relative inhibition = (Slope of EC − Slope of S/Slope of EC) × 100 where S is the term representing the tested compound [51, 52]. […] The IC50 values were calculated using the plots of the enzyme activity against concentrations by applying regression analyses.

COX-2 = target: T2, COX-2 (Homo sapiens, UniProt P35354); experiment: Fluorimetric COX-2 inhibition screening kit (BioVision); assay type: biochemical
T2 construct: purchased BioVision (Milpitas, CA, USA) K547-100
T2 sequence (P35354 18-604): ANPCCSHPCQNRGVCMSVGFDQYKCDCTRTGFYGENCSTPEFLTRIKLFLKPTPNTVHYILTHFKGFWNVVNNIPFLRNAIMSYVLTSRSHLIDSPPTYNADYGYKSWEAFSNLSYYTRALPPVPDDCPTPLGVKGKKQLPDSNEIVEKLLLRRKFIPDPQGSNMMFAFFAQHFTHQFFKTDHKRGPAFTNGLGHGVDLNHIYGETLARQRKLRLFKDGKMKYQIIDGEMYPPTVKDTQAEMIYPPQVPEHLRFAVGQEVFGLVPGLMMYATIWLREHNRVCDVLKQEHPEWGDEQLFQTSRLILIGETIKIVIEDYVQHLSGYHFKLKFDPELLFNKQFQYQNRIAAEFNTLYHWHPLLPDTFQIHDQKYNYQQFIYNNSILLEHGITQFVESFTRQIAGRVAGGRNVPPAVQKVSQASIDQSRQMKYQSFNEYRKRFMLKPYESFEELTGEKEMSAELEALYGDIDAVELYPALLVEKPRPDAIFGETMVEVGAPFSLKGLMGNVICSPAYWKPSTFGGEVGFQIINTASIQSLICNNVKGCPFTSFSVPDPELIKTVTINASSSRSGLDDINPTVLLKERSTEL
Experimental: as §1

AChE = AChE (Homo sapiens, UniProt P22303); assay type: biochemical
Experimental: Inhibition potency of the test compounds against AChE was determined using Ellman’s method. Enzyme solutions were prepared in gelatin solution (1%, w/v), at the concentration of 2.5 units/mL. […] AChE solution (20 µL/well) and test solution (20 µL/well) were added to phosphate buffer solution (140 µL/well, pH 8.0 ± 0.1), and incubated at 25 °C for 5 min. […] The production of the yellow anion was recorded by multimode microplate reader for 10 min at 412 nm. As a control, an identical solution of the enzyme without the inhibitor was processed. The control and the inhibitor readings were corrected with blank-readings. All processes were assayed in four independent determinations.

human recombinant MAO-A = target: T3, human recombinant MAO-A (Homo sapiens, UniProt P21397); experiment: MAO inhibition assay (kynuramine, fluorimetric); assay type: biochemical
T3 sequence (P21397 1-527): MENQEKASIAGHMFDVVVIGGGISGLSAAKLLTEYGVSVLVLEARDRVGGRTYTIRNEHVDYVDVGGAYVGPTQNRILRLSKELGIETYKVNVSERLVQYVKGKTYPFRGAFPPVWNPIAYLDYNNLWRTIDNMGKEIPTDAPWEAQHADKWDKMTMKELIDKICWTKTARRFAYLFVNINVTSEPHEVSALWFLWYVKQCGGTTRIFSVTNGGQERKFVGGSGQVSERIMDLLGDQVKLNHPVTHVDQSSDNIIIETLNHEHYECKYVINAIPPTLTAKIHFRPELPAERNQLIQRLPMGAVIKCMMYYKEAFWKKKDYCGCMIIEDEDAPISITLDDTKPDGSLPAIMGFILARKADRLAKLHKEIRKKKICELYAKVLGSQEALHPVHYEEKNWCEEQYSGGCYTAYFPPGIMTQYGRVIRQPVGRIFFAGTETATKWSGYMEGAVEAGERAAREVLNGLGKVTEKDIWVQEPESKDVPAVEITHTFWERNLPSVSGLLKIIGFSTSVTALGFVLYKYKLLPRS
Experimental: (§2) Enzyme activity assays were performed according to the procedure reported by Matsumoto et al. with slight modifications. In order to prevent the destructive effect of light on MAO enzymes, the assays were performed in 96-well black plates. Phosphate buffer solution (0.1 M, pH = 7.4) was used for preparation of stock solutions (5 mg/mL) of both human recombinant MAO-A and MAO-B enzymes. […] The addition of the test compound solution was followed by addition of either MAO-A or MAO-B enzyme (50 μL/well) solutions. After 10 min of incubation at 37 °C, kynuramine (50 μL/well) was added and enzyme-substrate reaction was initiated. The plate was incubated for 20 min at 37 °C and then reaction was terminated by addition of 2 N NaOH (75 μL/well). The fluorimetric reads from the top was performed at 310 nm excitation and 380 nm emission wavelengths.

human recombinant MAO-B = target: T4, human recombinant MAO-B (Homo sapiens, UniProt P27338); experiment: MAO inhibition assay (kynuramine, fluorimetric); assay type: biochemical
T4 sequence (P27338 1-520): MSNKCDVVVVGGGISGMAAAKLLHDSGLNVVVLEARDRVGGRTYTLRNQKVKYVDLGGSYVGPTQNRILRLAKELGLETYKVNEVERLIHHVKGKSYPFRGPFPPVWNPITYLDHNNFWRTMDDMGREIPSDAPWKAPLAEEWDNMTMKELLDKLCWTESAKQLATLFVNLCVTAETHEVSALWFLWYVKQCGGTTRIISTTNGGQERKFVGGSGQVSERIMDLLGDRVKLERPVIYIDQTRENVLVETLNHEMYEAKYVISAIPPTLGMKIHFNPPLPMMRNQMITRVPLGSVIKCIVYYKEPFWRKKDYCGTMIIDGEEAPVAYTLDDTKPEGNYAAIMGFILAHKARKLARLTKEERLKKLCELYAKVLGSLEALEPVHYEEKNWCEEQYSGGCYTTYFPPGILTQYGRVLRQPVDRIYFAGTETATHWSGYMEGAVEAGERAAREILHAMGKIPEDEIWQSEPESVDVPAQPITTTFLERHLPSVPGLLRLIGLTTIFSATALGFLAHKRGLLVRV
Experimental: as §2

Chain of AChE (P22303 32-614): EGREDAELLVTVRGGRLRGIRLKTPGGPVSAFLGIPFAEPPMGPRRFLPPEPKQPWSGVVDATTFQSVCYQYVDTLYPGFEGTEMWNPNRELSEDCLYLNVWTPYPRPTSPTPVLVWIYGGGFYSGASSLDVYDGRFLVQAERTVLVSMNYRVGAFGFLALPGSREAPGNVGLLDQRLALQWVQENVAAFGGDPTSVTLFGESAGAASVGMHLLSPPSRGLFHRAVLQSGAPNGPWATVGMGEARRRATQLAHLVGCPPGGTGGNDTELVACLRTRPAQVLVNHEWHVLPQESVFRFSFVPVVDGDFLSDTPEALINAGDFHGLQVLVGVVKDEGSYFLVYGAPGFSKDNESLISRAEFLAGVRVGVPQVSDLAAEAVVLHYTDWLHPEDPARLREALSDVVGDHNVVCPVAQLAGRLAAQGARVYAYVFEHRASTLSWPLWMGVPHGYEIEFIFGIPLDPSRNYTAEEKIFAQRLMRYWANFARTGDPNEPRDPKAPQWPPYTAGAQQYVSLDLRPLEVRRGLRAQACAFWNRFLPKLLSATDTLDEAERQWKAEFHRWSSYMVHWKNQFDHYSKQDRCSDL
T1 sequence (P05979 25-600): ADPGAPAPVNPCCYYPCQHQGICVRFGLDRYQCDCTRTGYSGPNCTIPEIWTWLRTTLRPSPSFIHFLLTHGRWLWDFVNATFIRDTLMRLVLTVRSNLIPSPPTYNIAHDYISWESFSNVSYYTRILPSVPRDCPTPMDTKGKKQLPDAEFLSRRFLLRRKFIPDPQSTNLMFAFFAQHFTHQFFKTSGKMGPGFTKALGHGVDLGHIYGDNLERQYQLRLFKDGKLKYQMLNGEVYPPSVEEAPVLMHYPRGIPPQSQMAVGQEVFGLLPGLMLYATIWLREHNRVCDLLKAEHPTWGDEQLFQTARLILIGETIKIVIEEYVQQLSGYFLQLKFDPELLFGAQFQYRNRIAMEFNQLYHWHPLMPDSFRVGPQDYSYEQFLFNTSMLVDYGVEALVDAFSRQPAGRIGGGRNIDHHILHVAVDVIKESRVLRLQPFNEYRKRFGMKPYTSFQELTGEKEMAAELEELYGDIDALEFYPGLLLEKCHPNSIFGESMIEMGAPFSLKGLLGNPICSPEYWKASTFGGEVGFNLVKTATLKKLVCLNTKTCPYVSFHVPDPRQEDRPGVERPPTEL

| Structure (SMILES) | MIC50 [1] | COX-1 Inhibition (%) (COX-1; 10^-3 M) | COX-1 Inhibition (%) (COX-1; 10^-4 M) | COX-2 Inhibition (%) (COX-2; 10^-3 M) | COX-2 Inhibition (%) (COX-2; 10^-4 M) | AChE Inhibition (%) (AChE; 10^-3 M) | AChE Inhibition (%) (AChE; 10^-4 M) | MAO-A Inhibition (%) (human recombinant MAO-A; 10^-3 M) | MAO-A Inhibition (%) (human recombinant MAO-A; 10^-4 M) | MAO-B Inhibition (%) (human recombinant MAO-B; 10^-3 M) | MAO-B Inhibition (%) (human recombinant MAO-B; 10^-4 M) |
| --- | --- | --- | --- | --- | --- | --- | --- | --- | --- | --- | --- |
| O=C(N[C@H](CO)[C@H](O)c1ccc([N+](=O)[O-])cc1)C(Cl)Cl [Chloramphenicol, reference compound] | 250 µg/mL (≈ 774 µM) |  |  |  |  |  |  |  |  |  |  |
| FC(F)(F)c1ccc(-c2nc3ccccc3n2CCN2CCOCC2)cc1 [Compound 2l, 2-(4-Trifluoromethylphenyl)-1-[2-(morpholin-4-yl)ethyl]-1H-benzimidazole] |  | 36.87% | 33.46% | 21.00% | 34.62% | 33.88% | 33.88% | 38.51% | 30.16% | 47.66% | 38.09% |
| CSc1ccc(-c2nc3ccccc3n2CCN2CCOCC2)cc1 [Compound 2n, 2-(4-Methylthiophenyl)-1-[2-(morpholin-4-yl)ethyl]-1H-benzimidazole] |  | 39.42% | 32.78% | 30.08% | 33.46% | 12.21% | 12.21% | 32.73% | 24.05% | 34.75% | 32.24% |
| c1ccc(-c2ccc(-c3nc4ccccc4n3CCN3CCOCC3)cc2)cc1 [Compound 2o, 2-(1,1’-Biphenyl)-1-[2-(morpholin-4-yl)ethyl]-1H-benzimidazole] |  | 27.63% | 34.00% | 30.76% | 21.48% | 6.33% | 6.33% | 31.85% | 26.19% | 31.12% | 23.54% |
